Data on one compound can be found in US10548906B2, “Methods of promoting hepatic regeneration” (Intercept Pharmaceuticals, Inc., priority 2015, dated 2020).

Data set [1] relates to Ki67-positive hepatocytes. Kind of data set: Ki67 staining of liver sections, hepatocyte proliferation after PVE (Example 5). It counts as in vivo, rabbit. Here is the method:
Liver tissue (left lateral and caudal lobes) was fixed in buffered formalin for 48 h, and subsequently dehydrated and embedded in paraffin. Four-micron sections of liver tissue were cut and stained with standard hematoxylin and eosin stain. Sections were scored for lobular and portal inflammation according to Table 1. Additionally, liver sections were stained with Ki67 antibodies to quantify hepatocyte proliferation, and hematoxylin counterstain as described in detail previously (van der Loos C M, et al. J Histochern Cytochern 2013; 61(1):11-8; Marsman H A, et al. Br J Surg 2013; 100(5):674-83). Ki67-positive hepatocytes were counted in a total of five high power fields per animal, by a hepatopathologist (JV) blinded to the group allocation. Liver histology was assessed at day 3 and 7 for n=6 per treatment group.

The subject of another data set is mice. Conditions: 2 years, 25 mg/kg; cited from earlier work.
The subject of another data set is Wistar rats. The data set is described as follows: Liver growth in cholestatic (rBDL) rats prior to partial hepatectomy (Example 6). The conditions noted are these: prior to PHx. In kind it is in vivo, rat. From the text: After the acclimatization period, the rats either continued on a regular chow diet or were switched to a methionine and choline-deficient (MCD) diet (Harlan Teklad, Madison, Wis.) for 3 weeks to induce moderate hepatic steatosis [Heger 2011a]. At the start of the second diet week, the rats either underwent sham surgery or were subjected to reversible bile duct ligation (rBDL). For rBDL, the extrahepatic bile duct was cannulated with a polyethylene catheter (length=±1.5 cm, inner diameter=0.4 mm, outer diameter=0.9 mm, Braun, Melsungen, Germany) connected to Silastic Tubing with a closed distal tip (length=±7.5 cm, inner diameter=0.8 mm, outer diameter=1.4 mm, Dow Corning, Midland, Mich.) [Kloek 2008]. Sham-operated animals underwent abdominal surgery, including bile duct mobilization, without inducing a biliary obstruction. Groups of rBDL rats were left untreated or received a daily oral gavage of the FXR agonist obeticholic acid (OCA, 10 mg/kg in 0.5% methylcellulose, 1.5 mL per 300 g body weight) between 7:30 and 9:00 AM.
Seven days after BDL or sham operation, all rats were subjected to 70% PHx [DeGraaf 2011]. […]
At baseline (i.e., directly before PHx) and one to five days after PHx, animals were euthanized under isoflurane anesthesia by exsanguination. […] Liver regrowth was calculated from the regenerated liver mass, and was expressed as percentage of total liver mass prior to PHx. The projected remnant liver mass was calculated using the weight of the resected liver segments, which represent 70% of the total liver mass. Dry liver weights were measured to correct for hepatic water content [Kloek 2010a].
After formalin fixation, liver specimens were dehydrated, paraffin-embedded, and stained with hematoxylin and eosin (H&E), the collagen type I and III stain picrosirius red, or the proliferation marker Ki67 [Marsman 2013]. Semi-quantitative analysis of H&E- and picrosirius red-stained liver histology was performed by an experienced hepatopathologist (JV) blinded to the experimental groups using a scoring system detailed in Table 1. […]

The test system of data set [2] is FXR. Kind of data set: FXR target gene expression in terminal ileum and liver by RT-qPCR (Example 5). In kind it is in vivo, rabbit. Here is the method: Total RNA was isolated from terminal ileum and (non)embolized liver lobes using Tri Reagent (Ambion). Following treatment with DNAseI (Promega, Leiden, the Netherlands), 750 ng total RNA was converted to cDNA using the iSCRIPT cDNA synthesis kit (BioRad, Veenendaal, the Netherlands). Quantitative RT-PCR (real-time polymerase chain reaction) was performed on an IQ5 Cycler using SYBR Green chemistry (SYBR Green MasterMix, BioRad) and cDNA equivalent to 7.5 ng total RNA as template. Expression levels were calculated using LinReg software (Ramakers C, et al. Neurosci Lett 2003; 339(1):62-6) and normalized to the geometric mean of Rplp0, Hprt and Gapdh. Predicted product size was checked by agarose gel electrophoresis. PCR analysis was performed using tissue obtained at day 3 and 7 for n=6 per treatment group.
A general note: Real-time PCR tracks product formation cycle by cycle.

Data set [3] relates to FXR. Kind of data set: Bile salt homeostasis/proliferation related transcript levels in liver after PVE (Example 5a). It counts as in vivo, rabbit. Here is the method: Adult female rabbits received vehicle or the FXR agonist obeticholic acid (OCA; 10 mg/kg, daily oral gavage) for 7 days prior to, and after embolization (day 0) of the cranial liver lobes. Effectiveness of PVE was confirmed by portography, and caudal liver volume (CLV) was analyzed by CT-volumetric analysis at days −7, −1, +3 and +7. Rabbits were sacrificed at day +3 and +7 (n=5-6 per group).

Regarding `CC[C@H]1[C@@H](O)[C@@H]2[C@H](CC[C@]3(C)[C@@H]([C@H](C)CCC(=O)O)CC[C@@H]23)[C@@]2(C)CC[C@@H](O)C[C@@H]12` [Compound 1, 3α,7α-dihydroxy-6α-ethyl-5β-cholanic acid], the “number of Ki67-positive hepatocytes relative to vehicle” value in data set [1] (3 days after PVE) worked out at 1.6 fold. Also, in data set [1] (day +3), the “Ki67-positive hepatocytes vs vehicle” value is reported as “Increased numbers”. Moreover, the malignant transformation result with mice is “does not lead to malignant transformation”. In the data set on Wistar rats (7 days rBDL), the “liver mass corrected for hepatic water content (dry weight)” value is “increased liver mass”. For the same compound, the “gross liver mass vs control group” value in the data set with Wistar rats (7 days rBDL, 10 mg/kg daily oral) is “higher”. Also, in the data set on Wistar rats (vs untreated rBDL or non-cholestatic animals), the “hepatocyte proliferation measured by Ki67 staining” value is listed as “more pronounced”. Moreover, the “hepatic βKlotho transcript level” value in the data set on FXR [2] (after three days) is “minor downregulation”. In the data set on FXR [2] (caudal liver), the “hepatic Shp expression” value is given as “without transcriptional induction” and the “hepatic expression of Fgfr4” value is listed as “not affected”. Moreover, the “hepatic expression of Cyp7a1” value with FXR [2] (caudal liver, day +3) was “strongly suppressed”. Further, in the data set with FXR [2] (day +3), the “Ostβ expression in the liver” value is given as “elevated” and the “ileal Shp expression” value is “induction”. Also, the “hepatic Fxr expression” value with FXR [2] (day +7) is given as “reduced”. Moreover, the “FXR activation (aggregated gene expression analysis)” value with FXR [2] (ileum and liver, listed as OCA) is “activation of both ileal and hepatic FXR”. In the data set with FXR [2] (terminal ileum), the “ileal expression of Fxr” value is listed as “no effect” and the “ileal expression of Ostβ” value is “not affected”. Besides, in the data set with FXR [3] (atrophic liver segments), the “expression of Cdc25b vs controls” value is listed as “+1.1 fold”. In addition, the “expression of Cdc25b vs controls” value with FXR [3] (hypertrophic liver segments) is reported as “+1.6 fold”. Further, in the data set with FXR [3] (hypertrophied segments, day +3), the “expression of Cyp7a1 vs controls” value is listed as −7.1 fold and the “expression of Slc51b vs controls” value is listed as “+6.5 fold”.
